Results published in patent US9796719B2, “Compounds and pharmaceutical compositions thereof for the treatment of inflammatory disorders” (GALAPAGOS NV, priority 2013, dated 2017).

Experiments:
Assay type in all cases: biochemical
hENPP2 [1] = target: T1, hENPP2 (UniProtKB/SwissProt Sequence ref Q13822) (Homo sapiens (Human), UniProt Q13822); experiment: LPC hENPP2 assay (choline release, LPC as substrate)
Outline: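 Choline released from LPC by ENPP2 is quantified after stopping with stop-developer containing 0.6 U/mL choline oxidase, 0.6 U/mL peroxidase, 1.8 mM TOOS, 1.2 mM amino-antipyrine and 20 mM EGTA. Quinoneimine dye read at 555 nm after 30 min at room temperature.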

hENPP2 [2] = target: T1, hENPP2; experiment: FS3 hENPP2 assay (fluorogenic substrate FS-3); settings: hENPP2, FS-3 as substrate
Outline: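 Compound dilutions (1/5 steps, top concentration as added 20 μM) were preincubated 30 min at room temperature with hENPP2 (0.4 or 0.64 μg/mL final) in pH 8.0 Tris buffer containing NaCl, KCl, MgCl2, CaCl2 and 0.1% fatty-acid-free BSA. FS-3 (0.75 μM as added) was then hydrolysed for 30 min at 30 °C, and fluorescence was read at 485/520 nm.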

LPA 18:2 = experiment: Rat whole blood (plasma) LPA assay
Experimental: Whole blood is collected from rats or mouse by exsanguinations on sodium heparin tube, then after centrifugation at 3000 rpm for 15 min at 4° C., plasma is stored at −80° C. Compounds are diluted in DMSO in concentration dependent manner then 0.5 μL are dispensed into 96-wells plate placed in ice. Plasma is defrosted on ice then 49.5 μL of plasma are added into the well containing 0.5 μL of compound (1% DMSO final). Plates are covered with a lid in polypropylene and incubated at +37° C., 5% CO2, for 2 h under gentle shaking (except controls which are stored at −20° C.).
At the end of the incubation, controls are defrosted in ice and transferred in the incubated plates for LC-MS/MS analysis with a non GLP-validated method. For the analysis, plasma proteins from a 10 μL incubated plates are precipitated with an excess of methanol containing the internal standard, LPA 17:0. After centrifugation, the corresponding supernatant is injected on a C18 column. Analytes are eluted out of the column under isocratic conditions. An API5500 QTRAP mass spectrometer (ABSciex™) is used for the detection of LPA 18:2. No calibration curve is prepared for LPA 18:2, however relative quantities are evaluated based on the peak area.

| Structure (SMILES) | IC50 (hENPP2 [1]) [nM] | IC50 (hENPP2 [2]) [nM] | IC50 (LPA 18:2) [nM] |
| --- | --- | --- | --- |
| CCc1nc2cnc(N3CCN(CC(=O)N4CC(O)C4)CC3)cn2c1N(C)c1nc(-c2ccc(F)cc2C#N)cs1 [Cpd 16, 2-(2-((2-ethyl-6-(4-(2-(3-hydroxyazetidin-1-yl)-2-oxoethyl)piperazin-1-yl)imidazo[1,2-a]pyrazin-3-yl)(methyl)amino)thiazol-4-yl)-5-fluorobenzonitrile] | > 1000 | 50 to 100 | > 1000 |
| CCc1nc2ccc(N3CCN(S(=O)(=O)CCCN(C)C)[C@H](CO)C3)nn2c1N(C)c1nc(-c2ccc(F)cc2)cs1 [Cpd 63, (S)-(1-(3-(dimethylamino)propylsulfonyl)-4-(2-ethyl-3-((4-(4-fluorophenyl)thiazol-2-yl)(methyl)amino)imidazo[1,2-b]pyridazin-6-yl)piperazin-2-yl)methanol] | 0.01 to 100 | 0.01 to 25 | 0.01 to 100 |
| CCc1nc2ccc(N3CCC4(CNC(=O)O4)C3)nn2c1N(C)c1nc(-c2ccc(F)cc2)cs1 (stereo not shown) [Cpd 118, 7-(2-ethyl-3-((4-(4-fluorophenyl)thiazol-2-yl)(methyl)amino)imidazo[1,2-b]pyridazin-6-yl)-1-oxa-3,7-diazaspiro[4.4] nonan-2-one] | 500 to 1000 | – | > 1000 |
| CCc1nc2ccc(C3CCN(CC(=O)N4CC(O)C4)CC3)nn2c1N(C)c1ccnc(-c2ccc(F)cc2)n1 [Cpd 216, 2-(4-(2-ethyl-3-((2-(4-fluorophenyl)pyrimidin-4-yl)(methyl)amino)imidazo[1,2-b]pyridazin-6-yl)piperidin-1-yl)-1-(3-hydroxyazetidin-1-yl)ethanone] | 500 to 1000 | 0.01 to 25 | > 1000 |
| CCc1nc2ccc(C3CCN(S(C)(=O)=O)CC3)nn2c1N(C)c1nc(-c2ccc(F)cc2C#N)cs1 [Cpd 205, 2-(2-((2-ethyl-6-(1-(methylsulfonyl)piperidin-4-yl)imidazo[1,2-b]pyridazin-3-yl)(methyl)amino)thiazol-4-yl)-5-fluorobenzonitrile] | 100 to 500 | – | 100 to 500 |
| CCc1nc2cnc(C3CCN(CC(=O)N4CC[C@@H](O)C4)CC3)cn2c1N(C)c1nc(-c2ccc(F)cc2)c(C#N)s1 [Cpd 24, (R)-2-((2-ethyl-6-(1-(2-(3-hydroxypyrrolidin-1-yl)-2-oxoethyl)piperidin-4-yl)imidazo[1,2-a]pyrazin-3-yl)(methyl)amino)-4-(4-fluorophenyl) thiazole-5-carbonitrile] | 100 to 500 | 0.01 to 25 | 0.01 to 100 |
| CCc1nc2ccc(C3CCN(S(C)(=O)=O)CC3)nn2c1N(C)c1nc(-c2ccc(F)cc2C#N)c(CO)s1 [Cpd 206, 2-(2-((2-ethyl-6-(1-(methylsulfonyl)piperidin-4-yl)imidazo[1,2-b]pyridazin-3-yl)(methyl)amino)-5-(hydroxymethyl)thiazol-4-yl)-5-fluorobenzonitrile] | 500 to 1000 | – | 100 to 500 |
| CN(c1nc(-c2ccc(F)cc2)cs1)c1c(CCC#N)nc2ccc(C3CCN(S(C)(=O)=O)CC3)nn12 [Compound 198, 3-(3-((4-(4-fluorophenyl)thiazol-2-yl)(methyl)amino)-6-(1-(methylsulfonyl)piperidin-4-yl)imidazo[1,2-b]pyridazin-2-yl)propanenitrile] | 100 to 500 | 0.01 to 25 | 0.01 to 100 |
| CCc1nc2cnc(N3CCN(CC(=O)N4CC(O)C4)CC3)cn2c1N(C)c1ncc(C#N)c(-c2ccc(F)cc2)n1 [Cpd 19, 2-((2-ethyl-6-(4-(2-(3-hydroxyazetidin-1-yl)-2-oxoethyl)piperazin-1-yl)imidazo[1,2-a]pyrazin-3-yl)(methyl)amino)-4-(4-fluorophenyl) pyrimidine-5-carbonitrile] | > 1000 | > 100 | > 1000 |
| CCc1nc2ccc(N3CCC(N4CCOCC4)C3)nn2c1N(C)c1nc(-c2ccc(F)cc2)c(C#N)s1 (stereo not shown) [Cpd 149, 2-((2-ethyl-6-(3-morpholino-pvrrolidin-1-yl)imidazo[1,2-b]pyridazin-3-yl)(methyl)amino)-4-(4-fluorophenyl) thiazole-5-carbonitrile] | 0.01 to 100 | – | 0.01 to 100 |
| CCc1nc2cnc(N3CCN(CC(=O)N4CC[C@H](O)C4)CC3)cn2c1N(C)c1nc(-c2ccc(F)cc2)c(C#N)s1 [Cpd 7, (S)-2-((2-ethyl-6-(4-(2-(3-hydroxypyrrolidin-1-yl)-2-oxoethyl)piperazin-1-yl)imidazo[1,2-a]pyrazin-3-yl)(methyl)amino)-4-(4-fluorophenyl) thiazole-5-carbonitrile] | 100 to 500 | 0.01 to 25 | 100 to 500 |

Other lines, results leading:

| IC50 (hENPP2 [1]) [nM] | IC50 (hENPP2 [2]) [nM] | IC50 (LPA 18:2) [nM] | Structure (SMILES) |
| --- | --- | --- | --- |
| 100 to 500 | 0.01 to 25 | > 1000 | CCc1nc2cnc(N3CCN(CC(=O)N(C)C)CC3)cn2c1N(C)c1nc(-c2ccc(F)cc2)c(C#N)s1 [Cpd 5, 2-(4-(3-((5-cyano-4-(4-fluorophenyl)thiazol-2-yl)(methyl)amino)-2-ethylimidazo[1,2-a]pyrazin-6-yl)piperazin-1-yl)-N,N-dimethylacetamide] |
| 100 to 500 | 0.01 to 25 | 100 to 500 | CCc1nc2cnc(N3CCN(CC(=O)N4CC[C@@H](O)C4)CC3)cn2c1N(C)c1nc(-c2ccc(F)cc2)c(C#N)s1 [Cpd 6, (R)-2-((2-ethyl-6-(4-(2-(3-hydroxypyrrolidin-1-yl)-2-oxoethyl)piperazin-1-yl)imidazo[1,2-a]pyrazin-3-yl)(methyl)amino)-4-(4-fluorophenyl) thiazole-5-carbonitrile] |
| > 1000 | – | > 1000 | CCc1nc2cnc(N3CCN(CC(=O)N4CC(O)C4)CC3)cn2c1N(C)c1nc(-c2ccc(F)cc2)cs1 [Cpd 14, 2-(4-(2-ethyl-3-((4-(4-fluorophenyl)thiazol-2-yl)(methyl)amino)imidazo[1,2-a]pyrazin-6-yl)piperazin-1-yl)-1-(3-hydroxyazetidin-1-yl)ethanone] |
| 100 to 500 | 0.01 to 25 | 100 to 500 | CCc1nc2cnc(C3CCN(CC(=O)N4CC(O)C4)CC3)cn2c1N(C)c1nc(-c2ccc(F)cc2)c(C#N)s1 [Cpd 23, 2-((2-ethyl-6-(1-(2-(3-hydroxyazetidin-1-yl)-2-oxoethyl)piperidin-4-yl)imidazo[1,2-a]pyrazin-3-yl)(methyl)amino)-4-(4-fluorophenyl) thiazole-5-carbonitrile] |
| 0.01 to 100 | 0.01 to 25 | 100 to 500 | CCc1nc2ccc(C3CCN(CC(=O)N4CC(O)C4)CC3)nn2c1N(C)c1cccc(-c2ccc(F)cc2C#N)n1 [Cpd 213, 2-(6-((2-ethyl-6-(1-(2-(3-hydroxyazetidin-1-yl)-2-oxoethyl)piperidin-4-yl)imidazo[1,2-b]pyridazin-3-yl)(methyl)amino)pyridin-2-yl)-5-fluorobenzonitrile] |
| 100 to 500 | 0.01 to 25 | 0.01 to 100 | CCc1nc2cnc(C3CCN(CC(=O)N4CC[C@H](O)C4)CC3)cn2c1N(C)c1nc(-c2ccc(F)cc2)c(C#N)s1 [Cpd 25, (S)-2-((2-ethyl-6-(1-(2-(3-hydroxypyrrolidin-1-yl)-2-oxoethyl)piperidin-4-yl)imidazo[1,2-a]pyrazin-3-yl)(methyl)amino)-4-(4-fluorophenyl) thiazole-5-carbonitrile] |
| 100 to 500 | 0.01 to 25 | 100 to 500 | CCc1nc2ccc(N3CCN(CC4CNC(=O)O4)CC3)nn2c1N(C)c1nc(-c2ccc(F)cc2)cs1 (stereo not shown) [Cpd 40, 5-((4-(2-ethyl-3-((4-(4-fluorophenyl)thiazol-2-yl)(methyl)amino)imidazo[1,2-b]pyridazin-6-yl)piperazin-1-yl)methyl) oxazolidin-2-one] |
| 100 to 500 | 0.01 to 25 | > 1000 | CCc1nc2cnc(N3CCN(CC(=O)N4CCOCC4)CC3)cn2c1N(C)c1nc(-c2ccc(F)cc2)c(C#N)s1 [Cpd 10, 2-((2-ethyl-6-(4-(2-morpholino-2-oxoethyl)piperazin-1-yl)imidazo[l,2-a]pyrazin-3-yl)(methyl)amino)-4-(4-fluorophenyl) thiazole-5-carbonitrile] |
| 100 to 500 | 0.01 to 25 | 100 to 500 | CCc1nc2ccc(C3CCN(CC(=O)N4CC(O)C4)CC3)nn2c1N(C)c1ccc(C#N)c(-c2ccc(F)cc2)n1 [Cpd 218, 6-((2-ethyl-6-(1-(2-(3-hydroxyazetidin-1-yl)-2-oxoethyl)piperidin-4-yl)imidazo[1,2-b]pyridazin-3-yl)(methyl)amino)-2-(4-fluorophenyl) nicotinonitrile] |
